From article PMC11359296, “Poly(2-Deoxy-2-Methacrylamido-D-Glucose)-Based Complex Conjugates of Colistin, Deferoxamine and Vitamin B12: Synthesis and Biological Evaluation” (Pharmaceutics, 2024)
Where a name gives a salt, the structure may show the parent alone. Where a SMILES comes first, the peptide text is derived from it. Bridges are numbered along the chain shown (N, C = ends). [ ]: non-standard residue; d: D form. The star is where a group is joined. Octanoyl(6-Me) = CCC(C)CCCCC(=O)*; Dab = NCC[C@H](N)C(=O)O

Columns and labels:
[1] = Caco-2 cell permeability assay; assay type: in vitro ADME, human; conditions: Caco-2 monolayer, 21 days culture, apical to basolateral; 0.5 mg/mL according to CT content in 0.01 M phosphate buffer pH 7.2; PBS basolateral; 2 h, sampled every 30 min; B12 by spectrophotometry, CT by HPLC; mean, n = 3; read-out: apparent permeability coefficient (Papp)
Method: (§1) The human colon adenocarcinoma cells (Caco-2) obtained from the Cell Culture Collection of the Institute of Cytology RAS (St. Petersburg, Russia) were used to study cell permeability. The study was carried out as described elsewhere. Briefly, Caco-2 cells were cultured in Dulbecco’s modified Eagle medium (DMEM, Biolot, St. Petersburg, Russia) containing L-glutamine, streptomycin/penicillin and 10% FBS in cell culture flasks (area 75 cm^2, Jet Biofil, Guangzhou, China) at 37 °C in a CO2 incubator under humidified conditions. The cultured cells were re-seeded into a new cell culture flask (1:6 ratio) when the cells reached 80–90% confluence. […] The vitamin B12 content and the content of B12-containing conjugates equivalent to vitamin B12 were determined spectrophotometrically, and the CT transferred to the lower chamber was determined by HPLC analysis as described in Section 2.2.2.
(§2) The Papp was calculated as follows:(2) Papp=dQ/dt∗1/A∗C0 where Papp is the apparent permeability coefficient (cm/s), dQ/dt is the permeation rate (µg/s), A is the area of the monolayer (0.3 sm^2), and C0 is the concentration of the test substance in the apical chamber at the initial time point (µg/mL).
(§3) In the case of the CT release and conjugate stability experiments, each assay was performed in three repeats. […] The cell permeability assay and antimicrobial activity were analyzed with n = 3 and 4, respectively. […]

[2] = system: Human embryonic kidney cells (HEK 293); assay: Cytotoxicity, MTT assay; assay type: cell-based; conditions: HEK 293, MTT, 72 h, n = 6
Method: Human embryonic kidney cells (HEK 293) purchased from the Cell Culture Collection of the Institute of Cytology RAS (St. Petersburg, Russia) were used to study the cytotoxicity of the conjugates. HEK 293 cells were cultured at 37 °C in a humidified atmosphere containing 5% CO2 in modified Eagle’s nutrient medium (MEM, Gibco, Billings, MT, USA) containing 1% essential amino acids, 1% L-glutamine, 50 μg/mL streptomycin, 50 U/mL penicillin, and 10 vol% thermally inactivated fetal bovine serum (FBS, HyClone, Logan, UT, USA). A total of 10^4 cells/100 µL/well was seeded into an adhesive 96-well plate and cultured for 1 day. After that, the medium was removed, and 100 µL of MEM with various concentrations of the test conjugates (4–1000 μg/mL with respect to the CT content) was added to each well with cells and incubated for 72 h. […] After the removal of the supernatant, formazan crystals produced by the metabolically viable cells were dissolved in DMSO (50 μL/well) and transferred to clean wells, followed by measuring the absorbance of the solutions at 570 nm using a multiwell plate reader (ThermoFisher Multiskan Labsystems, Waltham, MA, USA).
as §3

[3] = pH 7.4 and 37 °C; cited from earlier work
Method: The stability results of PMAG(10)-(DFOA,CT) conjugates with hydrolyzable (aldimine) bonds and reduced aldimine bonds in different media are summarized in Table 4. It was shown that the release in the buffer and the simulated biorelevant medium was consistent. […] Under gastric conditions, the release after 2 h was 20–26%, whereas under intestinal conditions, a release of 6–12% was detected.

P. aeruginosa = conditions: concentration range of 0.25–64 µg/mL; cited from earlier work
From the text: The antibacterial activity of free CT and its polymeric conjugates was examined against P. aeruginosa. […] When analyzing the results of the MIC values for the conjugates studied, the following trends can be distinguished.

Caco-2 monolayer = assay: Caco-2 cell permeability assay; assay type: in vitro ADME, human; conditions: 21 days culture, apical to basolateral, 0.5 mg/mL according to CT content in 0.01 M phosphate buffer pH 7.2, PBS basolateral, 2 h, sampled every 30 min, B12 by spectrophotometry, CT by HPLC, mean, n = 3
Method: as §1, §2, §3

CCC(C)CCCCC(=O)N[C@@H](CCN)C(=O)N[C@H](C(=O)N[C@@H](CCN)C(=O)N[C@H]1CCNC(=O)[C@H]([C@@H](C)O)NC(=O)[C@H](CCN)NC(=O)[C@H](CCN)NC(=O)[C@H](CC(C)C)NC(=O)[C@@H](CC(C)C)NC(=O)[C@H](CCN)NC1=O)[C@@H](C)O (stereo partly drawn) [CT, Polymyxin E (colistin, CT) sulfate salt] ({Octanoyl(6-Me)}-[Dab]T[Dab][Dab][Dab][dL]L[Dab][Dab]T; lactam 4-C; N-terminus assumed)
Papp A→B [1]: ~3 ×10⁻⁶ cm/s
concentration up to which no toxicity was found ([2]; 4–1000 μg/mL with respect to the CT content): ≤ 250 µg/mL
cytotoxicity (in words) ([2]; at a concentration of 500 μg/mL (with respect to CT content)): moderate cytotoxicity
half-life of CT [3]: 70 h

CC(=O)N(O)CCCCCNC(=O)CCC(=O)N(O)CCCCCNC(=O)CCC(=O)N(O)CCCCCN [DFOA, deferoxamine methanesulfonate salt]
antibacterial properties against P. aeruginosa (P. aeruginosa): Neither DFOA nor PMAG is known to possess antibacterial properties

cyanocobalamin [vitamin B12]
apparent permeability coefficient (Papp) (Caco-2 monolayer): ~ 77 × 10^−6 cm/s
